Results on four compounds are retold here after US7728146B2, “Enzyme inhibitors” (Probiodrug AG, priority 2006, dated 2010).

One data set deals with male Sprague Dawley rats. Put plainly: Circadian courses of activity, feeding and drinking behaviour; body weight, food and fluid consumption during chronic administration. It counts as in vivo, rat. The settings on record: vs vehicle. As for the experimental part: Example 130b as hydrochloride salt was dissolved in tap water in concentrations of 0.03, 0.1 and 0.3 mg/ml. Assuming a daily fluid intake of approx. 30 ml per animal (animal's weight: approx. 300 g), these concentrations should result in doses of approx. 3, 10 and 30 mg/kg/day. The solutions were prepared freshly every day. During chronic administration, solution offer was limited to 40 ml per day for each animal.
Imipramine was dissolved 0.5% Natrosol and administered once daily i.p. for 8 days (test group TG 11, see below) with a dose of 15 mg/kg/day in a volume of 1 ml/kg.
216 male Sprague Dawley rats. The animals were 6 weeks old at the start of the study. They were housed in groups of 4 animals (“acute animals”) or in single cages (“chronic animals”) at 12 h/12 h light/dark (start of the light phase at 2 a.m.), 20° C., 60% rH. Animals were provided by Elevage Janvier, France.
During the 7 days lasting period of chronic compound administration, animals were kept singly. On the first day they were kept in single Macrolon home cages. On the next day they were transferred to activity monitoring cages and kept there for 3 days. For the following 3 days they returned to their home cages (single housing).
Animals received the test compound chronically via the drinking fluid. The reference compound Imipramine was given i.p. (one administration per day, one hour before the respective tests). Fluid supply was restricted to 40 ml per day for all test groups. On the first day of chronic test compound exposure, animals were kept singly in standard single home cages to enable an individual assessment of test compound intake. On the second day, animals were transferred to infrared monitoring cages for 3 days. Food and fluid offer were the same as in the home cage. Measuring rearing activity near fluid bottles and food grid enabled an assessment of the time structure of food and water (compound) consumption. Behavioural observation started one hour before the beginning of the dark phase (2 p.m.). After 22 hours, body weight, food and fluid consumption were measured. 2 hours later, the next recording started.
Raw data were provided as computer files accompanied by written protocol sheets. As the animals were still adapting to the environment and administration the time courses of the following parameters were calculated only for the last day of registration: • Food and fluid intake (time %) • Number of feeding and […] bouts • Meal pattern parameters reflecting e.g. the duration and recurrence of feeding and drinking bouts • Total distance travelled (cm/min) • Small movements (cm/min) • Distance travelled with rapid locomotion (cm/min) • Distance travelled with slow locomotion (cm/min) • Immobility (time %) • Use of available space (%) • Locomotor stereotypies (score, first hour of the dark phase only) • Rearing (time %) • Number of rearing acts (N) Feeding and Drinking Bouts and Bout-Related Analysis:
On the basis of high-resolution infrared beam recordings, feeding and drinking is identified by means of beam interruption in the upper frame near to the positions of food or water. Feeding or drinking acts are then defined as temporally contingent behavioural pattern separated from each other by intervals not longer than 0.5 seconds. Normally, several acts form a feeding or drinking bout. The intervals within a bout are definitely shorter than between subsequent bouts. A threshold interval can be set to distinguish between intra-bout and inter-bout intervals.
Stereotyped locomotion was assessed by means of statistical comparisons between the observed locomotor sequences (as described by the movement from one of the 4×4 subsquares to another) and a “random walk”. The comparison is performed at 5 different levels:
The coefficient of locomotor stereotypies (SC, in %) at each level has a value of SC=0 when there are no regularities within the movement pattern (random walk). […]

Data set [1] concerns neuroblastoma cell line SY5Y. Put plainly: LD50 determination on SY5Y (LDH). It counts as cell-based. The settings on record: 8 serial dilutions, highest concentration 1 mM. As for the experimental part: (§1) After 24 h of cultivation in a 96 well plate (50 000 cells/well) compounds (dissolved in DMSO) are added and cytotoxicity and vitality of the cells are analysed after another 24 h of cultivation using the CytoTox-One Homogenoeous membrane toxicity assay (Promega).
(§2) For cytotoxicity the LDH activity in the cell culture media after 24 h of incubation are analysed. The untreated control is set to 0% cytotoxicity. For the 100% value LDH activity of lysed untreated cells are analysed.
(§3) For viability cell culture media are removed from the cells and all cells are lysed using the lysis buffer. LDH activity is determined and untreated control is set to 100% viability.
(§4) For determination of LD50 the liver carcinoma cell line HEP-G2 and the neuroblastoma cell line SY5Y may be used. The effect of 8 serial dilutions of the compounds (highest concentration 1 mM) is investigated as described above.

The target in another data set is DP9 (Homo sapiens, UniProt Q86TI2). Nature of the data set: DP9 assay. In kind it is biochemical. The settings on record: for IC50: Gly Pro-AMC 0.25 mM; for Selectivity DP9(IC50)/DPIV(Ki): ratio IC50 DP9 / Ki DP IV. How it is done: (§5) Determination of IC50 values for DPII and DP9 are done similarly as described for DP IV.
For DP9 Gly Pro-AMC is used as substrate in a final concentration of 0.25 mM.

The next data set concerns the target DPII (Homo sapiens, UniProt Q9UHL4). Nature of the data set: DPII assay. In kind it is biochemical. The settings on record: for Selectivity DPII(IC50)/DPIV(Ki): ratio IC50 DPII / Ki DP IV. How it is done:
as §5
For DPII instead of the HEPES buffer a 0.2 M sodium acetate buffer pH 5.5 is used. As substrate Gly-Pro-AMC is used in a final concentration of 1 mM.

The test system of data set [2] is liver cell carcinoma cell line Hep-G2. Nature of the data set: Cytotoxicity screening and LD50 determination on Hep-G2 (LDH, CytoTox-One). Conditions: for Cytotox 100 μM (%) HEPG2 / Viability 100 μM (%) HEP-G2: 24 h; for Cytotox 100 μM (%) HEPG2: LDH activity in cell culture media, lysed untreated cells = 100%; for Viability 100 μM (%) HEP-G2: LDH of lysed cells, untreated control = 100%. It counts as cell-based. How it is done: Cytotoxicity of the compounds may be screened using the liver cell carcinoma cell line Hep-G2.
as §1
Three concentrations (100 μM, 2 μM, 40 nM) of each compound are analysed in triplicates. The final DMSO concentration was 1%.
as §2, §3, §4
The cytotoxicity of certain example compounds (in each case prepared by preparative synthesis) was screened using Hep-G2 cells. Compounds were tested in concentrations of 100 μM, 2 μM and 40 nM.

The target in data set [3] is dipeptidyl peptidase (DP IV) (UniProt P27487). Nature of the data set: Determination of IC50 against DP IV (hydrolysis of Gly-Pro-pNA). It counts as biochemical, porcine kidney or recombinant human. The settings on record: compounds obtained by preparative synthesis. How it is done:
Determination of IC50 Against DP IV
Substances are screened for inhibition of dipeptidyl peptidase (DP IV) by their ability to inhibit the hydrolysis of the DP IV specific substrate Glycyl-Prolyl-4-Nitroanilide (Gly-Pro-pNA). All compounds are diluted in DMSO and IC50 will be determined with 11 serial dilutions (1:2) starting with an final concentration of 100 μM. The final DMSO concentration in the assay is 5% (v/v). The method was automated using a Tecan Genesis Freedom liquid handler and a Genius Pro (Tecan) microplate reader.
A stock solution of 0.102 M HEPES is prepared. Ionic strength (I=0.32) is adjusted by KCl and pH (pH 7.6) by KOH.
2.16 mM solution of Gly-Pro-pNA in deionized water is prepared.
All samples are dissolved in DMSO preparing a 10 mM stock solution.
DP IV from porcine kidney (pDP IV) or recombinant human DP IV (rhDP IV) is diluted in HEPES buffer to a final activity of approximately 40-50 μU*ml^−1. The DP IV is stored in a cooling rack (4° C.) on the liquid handler.
The assay may becarried out at room temperature using Freedom liquid handler connected with a Genios Pro microplate reader. Each sample is measured in duplicate. Each sample stock solution is prediluted with DMSO in a ratio of 1:5 in a polypropylen 96-well plate. From this predilution 10 serial (1:2) dilutions in DMSO are prepared. 13.5 μl of the 11 DMSO dilutions and DMSO alone are transferred to the measurement microplate (duplicates) and 86.5 μl water, 100 μl HEPES buffer and 50 μl substrate solution are added to each well. The enzymatic reaction is started by addition of 20 μl enzyme solution to each well, and then the microplate is immediately transferred to the microplate reader.
After short mixing (20 s) the release of 4-Nitroanilin (pNA) is monitored at 405 nm for 30 cycles (approx. 18 min).
Post assay calculations are done by the Magellan (Tecan) and Graphit Software. The linear slopes are calculated for each well and averaged for the duplicates. The residue activities are calculated in relation to a sample containing only solvent instead of inhibitor and expressed in %. Residue activities are plotted against the log of inhibitor concentrations and IC50 is calculated by an 4-parameter fitting ranging from 0 to 100%.

In data set [4] the target is T1, DP IV (Homo sapiens, UniProt P27487). Put plainly: Ki and inhibition type, DP IV. It counts as biochemical. Conditions: compounds obtained by preparative synthesis. As for the experimental part: Measurement of DP IV activities for Ki determination is carried out as described for IC50. For Ki determination samples were analysed in triplicates. 7 serial dilutions of the inhibitor (range calculated from the IC50 determination) in water are analyzed with 4 serial dilutions of the substrate.
Data are analysed by non-linear regression to the inhibitor equations using Graphit software. Ki-value and inhibition type are determined using the inhibitor equation (competitive, partiell competitive, non-competitive) which gives the best fitting results. […]

In data set [5] the target is T1, DP IV. Nature of the data set: DP IV inhibition IC50, parallel-synthesis compounds tested directly following synthesis (without purification). In kind it is biochemical. Further details: IC50 DP4; other: tested directly following parallel synthesis, without purification; compounds of formula (Ib) from parallel synthesis, tested directly following synthesis. The settings on record: DP IV inhibition; compounds of formula (Ib) from parallel synthesis, tested directly following synthesis (without purification); read-out: IC50. An outline of the steps:
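IC50 came from a 4-parameter fit of residual activity (linear 405 nm slopes for pNA release over ~18 min, relative to solvent-only wells). Gly-Pro-pNA was the substrate, cleaved by porcine kidney or recombinant human DP IV at room temperature in HEPES with 5% DMSO; duplicate 1:2 series started at 100 μM final.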

The mark [6] stands for this setting: circadian registration, Imipramine 15 mg/kg/day i.p., Example 130b approx. 3, 10, 30 mg/kg/day.
The mark [7] stands for this setting: Imipramine 15 mg/kg/day i.p., Example 130b hydrochloride approx. 3, 10, 30 mg/kg/day via drinking fluid.
[8] abbreviates: sodium acetate buffer pH 5.5, Gly-Pro-AMC 1 mM.
[9] abbreviates: 8 serial dilutions, highest concentration 1 mM.

Counter-ions that a name gives are not always drawn.

Chain of DP9 (Q86TI2 whole entry, species assumed): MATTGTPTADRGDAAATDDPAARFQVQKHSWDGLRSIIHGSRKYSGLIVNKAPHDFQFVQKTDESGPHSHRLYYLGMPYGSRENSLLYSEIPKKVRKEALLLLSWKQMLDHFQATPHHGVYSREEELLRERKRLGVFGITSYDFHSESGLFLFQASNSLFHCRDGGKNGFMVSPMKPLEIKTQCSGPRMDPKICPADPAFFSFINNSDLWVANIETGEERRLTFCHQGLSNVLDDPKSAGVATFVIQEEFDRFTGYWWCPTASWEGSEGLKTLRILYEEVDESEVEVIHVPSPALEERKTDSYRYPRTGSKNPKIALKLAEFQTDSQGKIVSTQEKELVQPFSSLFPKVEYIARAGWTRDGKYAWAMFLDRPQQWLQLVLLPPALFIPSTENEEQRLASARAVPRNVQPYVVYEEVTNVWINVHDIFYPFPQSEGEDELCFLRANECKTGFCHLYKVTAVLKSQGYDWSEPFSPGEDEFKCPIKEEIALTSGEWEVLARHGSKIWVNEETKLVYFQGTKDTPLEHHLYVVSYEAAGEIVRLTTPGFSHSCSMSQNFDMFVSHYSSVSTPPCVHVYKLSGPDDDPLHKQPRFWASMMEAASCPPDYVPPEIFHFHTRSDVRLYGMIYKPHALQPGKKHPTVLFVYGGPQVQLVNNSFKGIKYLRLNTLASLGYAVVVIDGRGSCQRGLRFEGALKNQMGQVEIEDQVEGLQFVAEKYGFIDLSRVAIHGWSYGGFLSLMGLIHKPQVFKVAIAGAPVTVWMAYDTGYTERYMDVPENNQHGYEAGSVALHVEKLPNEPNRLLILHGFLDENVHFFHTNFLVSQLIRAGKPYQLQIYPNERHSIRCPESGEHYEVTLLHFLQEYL
T1 sequence (P27487 whole entry): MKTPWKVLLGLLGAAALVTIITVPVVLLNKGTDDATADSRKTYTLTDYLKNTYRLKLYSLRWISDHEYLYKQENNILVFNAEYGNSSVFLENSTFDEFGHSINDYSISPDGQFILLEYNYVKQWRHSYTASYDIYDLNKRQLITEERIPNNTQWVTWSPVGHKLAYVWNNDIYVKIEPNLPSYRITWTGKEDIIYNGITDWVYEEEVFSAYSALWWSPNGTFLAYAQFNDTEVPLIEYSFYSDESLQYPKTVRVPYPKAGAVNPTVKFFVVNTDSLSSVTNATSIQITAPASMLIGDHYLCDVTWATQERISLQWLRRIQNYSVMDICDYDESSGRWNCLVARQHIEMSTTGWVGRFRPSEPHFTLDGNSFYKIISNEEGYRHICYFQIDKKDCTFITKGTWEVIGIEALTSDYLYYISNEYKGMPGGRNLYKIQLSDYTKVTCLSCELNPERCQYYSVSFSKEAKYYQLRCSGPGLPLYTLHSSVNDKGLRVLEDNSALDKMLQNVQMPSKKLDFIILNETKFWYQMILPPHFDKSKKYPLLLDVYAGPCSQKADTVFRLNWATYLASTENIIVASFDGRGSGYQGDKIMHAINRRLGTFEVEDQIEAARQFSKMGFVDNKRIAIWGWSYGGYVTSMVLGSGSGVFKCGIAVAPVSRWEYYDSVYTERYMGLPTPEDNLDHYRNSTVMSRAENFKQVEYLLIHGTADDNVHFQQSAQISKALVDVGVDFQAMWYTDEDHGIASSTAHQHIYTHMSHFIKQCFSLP

Regarding `CN(C)CCCN1c2ccccc2CCc2ccccc21` [Imipramine, Imipramine Hydrochloride, reference compound], in the data set on male Sprague Dawley rats (circadian registration, Imipramine 15 mg/kg/day i.p.), the time immobile entry is given as “spent more time immobile”. Also, in the data set with male Sprague Dawley rats (setting [6]), the “horizontal and vertical (locomotor) activity” value is given as “clearly reduced”; the “time accessing food and water (fluid)” value is “lower amount of time”. For the same compound, the “locomotor stereotypies (stereotypy index)” value with male Sprague Dawley rats (first hour of the dark phase, Imipramine: level 2, 3 and 4 stereotypies, Example 130b: usage of available space or stereotypy index) is listed as “reduction”. For the same compound, in the data set with male Sprague Dawley rats (setting [7]), the “body weight (gain)” value is recorded as “significantly reduced”, the fluid intake result is listed as “significantly reduced” and the food intake result is “significantly reduced”.
Usually IC50 stands for the concentration that inhibits the measured activity by half. The Ki is a dissociation constant, usually derived from enzyme kinetics or from competition with a known ligand. On to `NCc1c(-c2ccc(Cl)cc2Cl)ncn1Cc1ccccc1OC(F)(F)F` [Example 129b, C-[5-(2,4-dichloro-phenyl)-3-(2-trifluoromethoxy-benzyl)-3H-imidazol-4-yl]-methylamine], for which, in data set [1], the “LD50 Viability SY5Y” value worked out at 0.13 mM and the “LD50 cytotox SY5Y” value worked out at 0.21 mM. Further, at DP9, the IC50 was found to be 53.2 µM and the “Selectivity DP9(IC50)/DPIV(Ki)” value is listed as 8,135. In addition, at DPII, the Ki stood at 4.42 µM and the “Selectivity DPII(IC50)/DPIV(Ki)” value was found to be 237. On DPII (setting [8]), this compound yielded a half-inhibitory concentration (IC50) of 1.55 µM. Further, in data set [2] (setting [9]), the “LD50 Viability HEP-G2” value turned out to be 0.15 mM and the “LD50 cytotox HEP-G2” value is 0.16 mM. In data set [3], half-maximal inhibition (IC50) required 0.07 µM. In addition, the Ki on DP IV [4] was determined as 0.00654 µM.
Regarding `NCc1c(-c2ccc(Cl)cc2Cl)ncn1CCCn1ccnc1` [Example 104b, C-[5-(2,4-dichloro-phenyl)-3-(3-imidazol-1-yl-propyl)-3H-imidazol-4-yl]-methylamine], the IC50 against DP9 was 17.5 µM; at DPII (values >1e−4 are extrapolated values), 277 µM; at DP IV [5], 5.5 µM; in data set [3], 0.408 µM. Moreover, on DP9, the “Selectivity DP9(IC50)/DPIV(Ki)” value was determined as 579. Besides, on DPII, the “Selectivity DPII(IC50)/DPIV(Ki)” value was 9,172. The “Cytotox 100 μM (%) HEPG2” value in data set [2] (100 μM) is recorded as 2.9%. In addition, the “Viability 100 μM (%) HEP-G2” value in data set [2] (100 μM) is recorded as 104.1%. The compound also yielded a Ki on DP IV [4] of 0.0302 µM.
Take `NCc1c(-c2ccc(Cl)cc2Cl)ncn1CCc1ccccc1Cl` [Example 21b, C-[3-[2-(2-chloro-phenyl)-ethyl]-5-(2,4-dichloro-phenyl)-3H-imidazol-4-yl]-methylamine]: the Ki at DP9 turned out to be 0.925 µM; on DPII, 3.18 µM; on DP IV [4], 0.0294 µM. The IC50 on DP9 amounted to 1.28 µM; against DPII (setting [8]), 4.62 µM; at DP IV [5], 1.9 µM; in data set [3] it was 0.514 µM. Moreover, at DP9, the “Selectivity DP9(IC50)/DPIV(Ki)” value was found to be 44. Besides, the “Selectivity DPII(IC50)/DPIV(Ki)” value at DPII is given as 157. The “Cytotox 100 μM (%) HEPG2” value in data set [2] (100 μM) is 97.1%. Besides, the “Viability 100 μM (%) HEP-G2” value in data set [2] (100 μM) came out at 9.8%. Further, the Observed cytotox in data set [2] (100 μM, Hep-G2, observation of the cells) was 100% lysis.
